Test results reported in PubChem BioAssay AID651731 (NMMLSC, 2012).
Calls of active or inactive are those of the source. How the calls were made is not given here.

Key:
[1] = V-ATPase inhibitors raising yeast vacuolar pH, dose response, S. cerevisiae, BCECF dye, powder sets 2-3 (AID 651731); conditions: S. cerevisiae vacuolar pH, BCECF fluorescence; at 100 µM (top of the series)
[2] = biological target: S. cerevisiae vacuolar pH, BCECF fluorescence; experiment: as above

Row | SMILES | response (vacuolar pH increase) [1] | EC50 [2] [µM]
1 | Nc1cncc(C(=O)N2CCN(c3nc4ccc(F)cc4s3)CC2)n1 | inactive | –
2 | COCc1cccc(C(=O)N2CCN(c3nc4ccc(F)cc4s3)CC2)c1 | inactive | –
3 | CN(C)C(=O)c1cccc(C(=O)Nc2ccccc2N2CCOCC2)c1 | inactive | –
4 | Cc1cccc(C(=O)Nc2ccccc2N2CCOCC2)n1 | inactive | –
5 | N#Cc1cccc(C(=O)Nc2ccccc2N2CCOCC2)c1 | inactive | –
6 | COCc1ccc(C(=O)Nc2ccccc2N2CCOCC2)o1 | inactive | –
7 | O=C(Nc1ccccc1N1CCOCC1)c1cncc(Cl)n1 | inactive | –
8 | O=C(Nc1ccccc1N1CCOCC1)c1cccc(C(F)(F)F)n1 | inactive | –
9 | Cc1ccc(C(=O)Nc2ccccc2N2CCOCC2)o1 | inactive | –
10 | NS(=O)(=O)c1cccc(C(=O)Nc2ccccc2N2CCOCC2)c1 | inactive | –
11 | CN(C)C(=O)c1cccc(C(=O)N2CCN(c3nc4ccc(F)cc4s3)CC2)c1 | inactive | –
12 | CN(C)Cc1cccc(C(=O)Nc2ccccc2N2CCOCC2)c1 | inactive | –
13 | O=C(Nc1ccccc1N1CCOCC1)c1cc(Cl)ccn1 | inactive | –
14 | O=C(Nc1ccccc1N1CCOCC1)c1cccc(Cl)n1 | inactive | –
15 | Nc1cncc(C(=O)Nc2ccccc2N2CCOCC2)n1 | inactive | –
16 | CN(C)Cc1ccc(C(=O)Nc2ccccc2N2CCOCC2)o1 | inactive | –
17 | Cc1cncc(C(=O)N2CCN(c3nc4ccc(F)cc4s3)CC2)n1 | inactive | –
18 | CS(=O)(=O)c1cccc(C(=O)Nc2ccccc2N2CCOCC2)c1 | inactive | –
19 | NC(=O)c1cccc(C(=O)N2CCN(c3nc4ccc(F)cc4s3)CC2)c1 | inactive | –
20 | O=C(Nc1ccccc1N1CCOCC1)c1ccc(-c2ccccc2)o1 | inactive | –

Row | SMILES | response (vacuolar pH increase) [1] | EC50 [2] [µM]
21 | NC(=O)c1cccc(C(=O)Nc2ccccc2N2CCOCC2)c1 | inactive | –
22 | CC(C)(C)c1ccc(C(=O)Nc2ccccc2N2CCOCC2)o1 | inactive | –
23 | CS(=O)(=O)Cc1cccc(C(=O)N2CCN(c3nc4ccc(F)cc4s3)CC2)c1 | inactive | –
24 | CN(C)S(=O)(=O)c1cccc(C(=O)N2CCN(c3nc4ccc(F)cc4s3)CC2)c1 | inactive | –
25 | N#Cc1ccnc(C(=O)N2CCN(c3nc4ccc(F)cc4s3)CC2)c1 | inactive | –
26 | Nc1ncc(C(=O)Nc2ccccc2N2CCOCC2)o1 | inactive | –
27 | O=C(Nc1ccccc1N1CCOCC1)c1cccc(C(F)(F)F)c1 | inactive | –
28 | O=C(c1cncc(Cl)n1)N1CCN(c2nc3ccc(F)cc3s2)CC1 | inactive | –
29 | Cc1ccnc(C(=O)Nc2ccccc2N2CCOCC2)c1 | inactive | –
30 | O=C(Nc1ccccc1N1CCOCC1)c1ccc(Br)o1 | inactive | –
31 | O=C(Nc1ccccc1N1CCOCC1)c1cc(C(F)(F)F)ccn1 | inactive | –
32 | CN(C)S(=O)(=O)c1cccc(C(=O)Nc2ccccc2N2CCOCC2)c1 | inactive | –
33 | O=C(Nc1ccccc1N1CCOCC1)c1cccc(Br)n1 | inactive | –
34 | O=C(Nc1ccccc1N1CCOCC1)c1ccc(C(F)(F)F)o1 | inactive | –
35 | CS(=O)(=O)c1ccc(C(=O)Nc2ccccc2N2CCOCC2)o1 | inactive | –
36 | N#Cc1ccnc(C(=O)Nc2ccccc2N2CCOCC2)c1 | inactive | –
37 | NS(=O)(=O)c1cccc(C(=O)N2CCN(c3nc4ccc(F)cc4s3)CC2)c1 | inactive | –
38 | Cc1cncc(C(=O)Nc2ccccc2N2CCOCC2)n1 | inactive | –
39 | CN(C)Cc1cccc(C(=O)N2CCN(c3nc4ccc(F)cc4s3)CC2)c1 | inactive | –
40 | COCc1cccc(C(=O)Nc2ccccc2N2CCOCC2)c1 | inactive | –

Second part, the compound after the results:

Row | response (vacuolar pH increase) [1] | EC50 [2] [µM] | SMILES
41 | inactive | – | O=C(c1cc(C(F)(F)F)ccn1)N1CCN(c2nc3ccc(F)cc3s2)CC1
42 | inactive | – | NS(=O)(=O)c1ccc(C(=O)N2CCN(c3nc4ccc(F)cc4s3)CC2)o1
43 | – | 31.8 | O=C(c1cccc(C(F)(F)F)c1)N1CCN(c2nc3ccc(F)cc3s2)CC1
44 | inactive | – | O=C(c1cc(CO)ccn1)N1CCN(c2nc3ccc(F)cc3s2)CC1
45 | inactive | – | O=C(c1ccc(C(F)(F)F)o1)N1CCN(c2nc3ccc(F)cc3s2)CC1
46 | inactive | – | COCc1ccc(C(=O)N2CCN(c3nc4ccc(F)cc4s3)CC2)o1
47 | inactive | – | CS(=O)(=O)c1ccc(C(=O)N2CCN(c3nc4ccc(F)cc4s3)CC2)o1
48 | inactive | – | O=C(c1ccc(-c2ccccc2)o1)N1CCN(c2nc3ccc(F)cc3s2)CC1
49 | inactive | – | O=C(c1cc(Cl)ccn1)N1CCN(c2nc3ccc(F)cc3s2)CC1
50 | – | 37.4 | O=C(c1cccc(Cl)n1)N1CCN(c2nc3ccc(F)cc3s2)CC1
51 | inactive | – | Cc1cccc(C(=O)N2CCN(c3nc4ccc(F)cc4s3)CC2)n1
52 | inactive | – | Cc1ccnc(C(=O)N2CCN(c3nc4ccc(F)cc4s3)CC2)c1
53 | inactive | – | O=C(c1cccc(Br)n1)N1CCN(c2nc3ccc(F)cc3s2)CC1
54 | inactive | – | O=C(c1ccc(Br)o1)N1CCN(c2nc3ccc(F)cc3s2)CC1
55 | inactive | – | Nc1ncc(C(=O)N2CCN(c3nc4ccc(F)cc4s3)CC2)o1
56 | inactive | – | Cc1ccc(C(=O)N2CCN(c3nc4ccc(F)cc4s3)CC2)o1
57 | inactive | – | NC(=O)c1ccc(C(=O)N2CCN(c3nc4ccc(F)cc4s3)CC2)o1
58 | – | 60.5 | O=C(c1cccc(C(F)(F)F)n1)N1CCN(c2nc3ccc(F)cc3s2)CC1
59 | inactive | – | CC(C)(C)c1ccc(C(=O)N2CCN(c3nc4ccc(F)cc4s3)CC2)o1
60 | inactive | – | CN(C)Cc1ccc(C(=O)N2CCN(c3nc4ccc(F)cc4s3)CC2)o1
61 | inactive | – | N#Cc1cccc(C(=O)N2CCN(c3nc4ccc(F)cc4s3)CC2)c1
